Reference: PubChem BioAssay AID977621 (Broad Institute, 2014)
Records with an inconclusive call do not appear. Activity calls are given as the source filed them.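 The calls were made as follows: active = Wild-type ribosome reporter drop at least double the humanized mutant ribosome reporter drop, growth loss under a set limit; inconclusive = no clear call, values can overlap the other calls; inactive = the rest.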

The compounds below were run on E. coli wild-type GFP strain growth, fluorescence, 24 h (assay: wild-type E. coli growth inhibition versus H69 humanized strain – H69 mutant RFP, wild-type GFP, cherry-pick, dose response (AID 977621;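 also: wild-type GFP and H69 mutant RFP strains grown together 50/50 in each well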)). Settings: not given.

Structure (SMILES) | AC50
CCn1nc(C(=O)OCc2cccc(S(=O)(=O)N(C)C)c2)c2ccccc2c1=O | > 100 µM (inactive)
CC(C)(CC(=O)O)CC(=O)NCc1c(Cl)cccc1Sc1ccc(Cl)cc1 | > 100 µM (inactive)
CC(C)N1CC2(CC(c3ccccc3C(F)(F)F)=NO2)CN1C(=O)c1ccco1 (stereo unspecified) | > 100 µM (inactive)
CSc1nc(SCCN(C)C)c2c3c(sc2n1)COC(C)(C)C3 | > 100 µM (inactive)
CC(NCc1ccc(S(N)(=O)=O)cc1)C(=O)Nc1cc([N+](=O)[O-])ccc1Cl (stereo unspecified) | > 100 µM (inactive)
CN(Cc1c(F)cccc1Cl)C(=O)c1ccc(NS(=O)(=O)c2ccc3[nH]c(=O)[nH]c3c2)cc1 | > 100 µM (inactive)
O=C(CN1CCC(n2nnc3cc(F)ccc32)CC1)N1CCc2ccccc2C1 | > 100 µM (inactive)
Cc1ccc(SCC(=O)Nc2ccc(S(=O)(=O)Nc3nccs3)cc2)cc1 | > 100 µM (inactive)
O=C(COc1cccc2c1CCN(Cc1ccccc1F)C2=O)N1CCCCC1 | > 100 µM (inactive)
CCOCC(=O)Nc1c(C(=O)Nc2ccc3c(c2)OCCO3)oc2ccccc12 | > 100 µM (inactive)
O=C(CSc1ccc(-c2cccnc2)nn1)N1CCCc2ccccc21 | > 100 µM (inactive)
c1ccc(CN2CCN(C3CCCSc4ccccc43)CC2)cc1 (stereo unspecified) | > 100 µM (inactive)
COc1ccc(C(=O)Cn2nnc(-c3ccccc3F)n2)cc1 | > 100 µM (inactive)
O=C1c2cccc3cccc(c23)C(=O)N1c1ccccc1Cl | > 100 µM (inactive)
Cc1c(Cc2ccccc2)sc(NC(=O)C(C)(C)C)c1C(N)=O | > 100 µM (inactive)
COc1ccc(C(=O)COC(=O)c2ccccc2O)c(OC)c1 | > 100 µM (inactive)
COC(=O)c1ccc(CN2CCCC(CO)(Cc3ccccc3F)C2)cc1 (stereo unspecified) | > 100 µM (inactive)
NS(=O)(=O)c1cccc(NC(=O)c2cccc(-c3ccc(O)cc3)c2)c1 | > 100 µM (inactive)
c1ccc(CNc2ncnc3sccc23)cc1 | > 100 µM (inactive)
COc1ccc(-c2noc(=O)n2Cc2ccccc2Cl)cc1 | > 100 µM (inactive)
CCOc1ccc(NC(=O)CN2C(=O)COc3ccc(S(=O)(=O)N4CCCC4)cc32)cc1 | > 100 µM (inactive)
COC(=O)c1c(C)oc(C)c1S(=O)(=O)Nc1ccc(C(C)C)cc1 | > 100 µM (inactive)
Cc1onc(-c2ccccc2)c1-c1nnc(-c2ccccc2C(F)(F)F)o1 | > 100 µM (inactive)
CCCCC(=O)N1CCN(c2nc3ccc(Br)cc3s2)CC1 | > 100 µM (inactive)
C[C@@H]1CN([C@@H](C)CO)C(=O)CCCn2nncc2CO[C@H]1CN(C)C(=O)Nc1cccc(C(F)(F)F)c1 | > 100 µM (inactive)
CCOc1ccc(NC(=O)CN(C)CC(=O)Nc2ccc(Br)cc2F)cc1OCC | > 100 µM (inactive)
CCn1ncc(Br)c1C(=O)Nc1ccc2c(c1)OCCO2 | > 100 µM (inactive)
O=C(CCC(=O)N1CCN(c2ccc(F)cc2)CC1)N1CCN(c2ccc(F)cc2)CC1 | > 100 µM (inactive)
COc1cccc(NC(=O)C2CCC(CNS(=O)(=O)c3cccc4cccnc34)CC2)c1 (stereo unspecified) | > 100 µM (inactive)
O=C(Nc1ccc2nc3n(c(=O)c2c1)CCCCC3)c1c(F)ccc([N+](=O)[O-])c1F | > 100 µM (inactive)

Same assay, conditions: E. coli mixed culture, 24 h; measured here: total growth OD600, test 2

Structure (SMILES) | AC50 [µM]
CCn1nc(C(=O)OCc2cccc(S(=O)(=O)N(C)C)c2)c2ccccc2c1=O | > 100
CCN(C(=O)COC(=O)c1cn(-c2ccccc2)nc1-c1ccccc1)C1CCS(=O)(=O)C1 (stereo unspecified) | > 100
CC(C)Oc1ccc(C(=O)Nc2cccc3cccnc23)cc1 | > 100
Cc1ccsc1C(=O)C1CCCN(Cc2cc(F)ccc2-n2cccn2)C1 (stereo unspecified) | > 100
CSc1nc(SCCN(C)C)c2c3c(sc2n1)COC(C)(C)C3 | > 100
COc1cc(C(=O)NCCc2c[nH]c3ccccc23)ccc1OCc1c(C)noc1C | > 100
O=C(CSc1ccc(-c2cccnc2)nn1)N1CCCc2ccccc21 | > 100
c1ccc(CN2CCN(C3CCCSc4ccccc43)CC2)cc1 (stereo unspecified) | 49.8
COc1ccc(C(=O)Cn2nnc(-c3ccccc3F)n2)cc1 | 41.2
O=C(Cc1cccc2ccccc12)Nc1ccccc1C(=O)O | 50.2
Cc1c(Cc2ccccc2)sc(NC(=O)C(C)(C)C)c1C(N)=O | 50.6
CCCC#C/C(CCC)=C1\c2ccccc2C(=O)N1c1ccccc1 | > 100
CC1=CC(C)(C)N(C(=O)CSc2nnc(C)s2)c2ccc(C)cc21 | > 100
COC(=O)c1c(C)oc(C)c1S(=O)(=O)Nc1ccc(C(C)C)cc1 | 51.5
COc1cc2cc(C(=O)Nc3ccc4c(c3)OCCO4)[nH]c2cc1OC | > 100
CCCCC(=O)N1CCN(c2nc3ccc(Br)cc3s2)CC1 | 31
CCOc1ccc(NC(=O)CN(C)CC(=O)Nc2ccc(Br)cc2F)cc1OCC | > 100
O=C(CCC(=O)N1CCN(c2ccc(F)cc2)CC1)N1CCN(c2ccc(F)cc2)CC1 | > 100
CCOC(=O)c1cc(C)nc(N2CCCCC2)c1C#N | > 100
O=C1c2ccccc2C(c2nnnn2Cc2ccccc2)N1Cc1cccc(F)c1 (stereo unspecified) | > 100
O=C(COc1cc(F)ccc1[N+](=O)[O-])NCCCc1ccccc1 | > 100

These compounds were tested on E. coli H69 humanized mutant ribosome RFP strain growth, fluorescence, 24 h in the same assay as above. Settings: test 2.

Structure (SMILES) | AC50 [µM]
Cc1cc(C)c(OCCN(C)Cc2ccccc2)c(Br)c1 | > 100
CN1CCN(CC(=O)c2cc(C(C)(C)C)c(O)c(C(C)(C)C)c2)CC1 | > 100
Cc1ccc(Cl)cc1N1CCN(C(=O)c2ccc3nc[nH]c3c2)CC1 | 51.4
Cc1noc2ncnc(SCc3ccc(C(F)(F)F)cc3)c12 | > 100
CSc1ccc(CN(C)C(=O)C(c2ccccc2)c2ccccc2)cc1 | 50.1
O=C(O)c1cc(-c2ccc(-c3ccc(F)cc3)o2)nc2ccccc12 | 39.6
O=C(O)c1cc(-c2cccs2)nn1-c1cccc(Cl)c1 | 46.1
COc1ccc(CNC(=O)c2sc3nc4c(c(C(F)(F)F)c3c2N)CCC4)cc1OC | 13.9
COC(=O)c1cc(C(=O)Cc2ccccc2)c[nH]1 | > 100
O=S(=O)(NCc1ccc2c(c1)OCO2)c1ccc2c(c1)oc1ccccc12 | 52.3
O=C(c1ccc(-n2cccn2)cc1)N1CCc2ccccc2C1 | 52.2
Cc1ccc(NC(=O)CN(C)S(=O)(=O)c2cccc3cccnc23)cc1F | > 100
COC(=O)c1ccc(CSc2nc3ccccc3s2)o1 | 39
CC(C)n1nnnc1C1c2ccccc2C(=O)N1CCOc1ccccc1 (stereo unspecified) | 0.989
O=C1N2c3ccccc3CCc3cccc(c32)C1(O)C(F)(F)F (stereo unspecified) | 43.6
Cc1ccccc1-n1nnnc1SCCCC(=O)c1ccc(F)cc1 | 6.72
CSc1nnnn1-c1ccc(Cl)cc1 | > 100
O=C(COC(=O)C1CC2C=CC1C2)Nc1ccc([N+](=O)[O-])cc1 (stereo unspecified) | > 100
CC(C)(C)N(Cc1ccccc1)C(=O)COC(=O)Cn1cnc2ccccc2c1=O | > 100
Cn1c(CC2C(=O)Nc3ccc(Br)cc32)nc2ccccc2c1=O (stereo unspecified) | > 100
Cc1ccccc1-c1nc(CS(=O)(=O)CC(=O)N2CCCCC2)c(C)o1 | > 100
CCc1cc2c(=O)n(Cc3ccccc3)c(SC3CCOC3=O)nc2s1 (stereo unspecified) | 52.3

Structure (SMILES) | AC50 [µM]
Cc1ccccc1Nc1c(-c2cccnc2)nc2ccc(Br)cn12 | > 100
COc1ccc2c(c1)c(C(C)=O)c(C)n2CCc1ccc(OC)c(OC)c1 | 51
O=C1CCCCC1Nc1ccc(Br)cc1 (stereo unspecified) | > 100
COc1ccc(C2CC(c3cccs3)=Nc3ccccc3S2)cc1 (stereo unspecified) | 1.44
Oc1ccc(-c2csc(Nc3ncccn3)n2)cc1 | > 100
FC(F)(F)c1ccc(Cl)c(-n2c(Cc3cccs3)n[nH]c2=S)c1 | > 100
CCc1c(N=O)c(-c2ccccc2)n(O)[n+]1[O-] | 6.29
Cc1noc(NS(=O)(=O)c2ccc(NC(=O)c3cc(-c4ccccc4Cl)nc4ccccc34)cc2)c1C | 45.6
O=C(OCC1COc2ccccc2O1)c1ccccc1F (stereo unspecified) | > 100
CCOc1ccc(S(=O)(=O)N(C)c2ccc(OCC(=O)NCc3cccnc3)cc2)cc1 | > 100
Cc1ccc(S(=O)(=O)N(C(=O)c2ccncc2)c2ccc(OC(=O)c3ccncc3)cc2)c(C)c1 | > 100
CCN(CC)CC(=O)Nc1sc2c(c1C(=O)c1ccccc1OC)CCC2 | 48.3
Brc1ccccc1Cn1c(-c2cncs2)nc2ccccc21 | > 100
O=C(CCNC(=O)c1ccccc1)Nc1ccc(Cl)c(S(=O)(=O)N2CCCCC2)c1 | 42.6
CCOC(=O)C1CCCN(Cc2c(Cl)cccc2Cl)C1 (stereo unspecified) | 6.66
Cc1ccc2c(N)c(C(=O)c3ccccc3)sc2n1 | 50.8
CCCCNC(=O)C[C@@H]1C[C@@]2(C(=O)OC)CCCCC=C2N(Cc2ccccc2)C1=O | > 100
Cc1noc(C)c1NC(=O)Nc1ccc2c(c1)C(=O)N([C@@H](C)CO)C[C@@H](C)[C@H](CN(C)C(=O)Nc1ccc3c(c1)OCO3)OCCCC[C@H](C)O2 | > 100
COc1cccc(CNC(=O)CCSCc2ccccc2F)c1 | > 100
C=CCNC(=O)c1ccccc1CCc1ccccc1 | > 100
COc1ccccc1NC(=O)CSc1ncc(CO)n1Cc1ccc(F)cc1 | > 100
NC(=O)c1ccccc1OCCOc1ccc(Br)cc1 | > 100

Structure (SMILES) | AC50 [µM]
CNC(=O)c1ccsc1NC(=O)c1ccc(S(=O)(=O)N2CCc3ccccc32)cc1 | 2.19
COC(C(=O)Nc1ccnn1C1CCN(Cc2ccc(Cl)s2)CC1)c1ccccc1 (stereo unspecified) | > 100
CN1CCSc2ccc(C(=O)Nc3cccc(F)c3)cc21 | 0.837
COc1ccc(C2CC(=O)CCN2S(=O)(=O)c2ccc(C)cc2)cc1 (stereo unspecified) | 3.86
[O-][n+]1ccccc1/C=C/c1ccccc1 | > 100
CSc1cccc(NC(=O)CCc2ccccc2)c1 | 20
O=C(Nc1cccc(Oc2ccc3c(c2)C(=O)NC3=O)c1)c1cccs1 | 13
CCCCn1c(=O)[nH]c(=O)c2c1nc(-c1ccccc1F)n2Cc1ccccc1 | > 100
Cc1ccccc1CSc1nnc(-c2ccccn2)n1C | 28.3
Cc1nn(C(C)(C)C)c(OC(=O)CC(C)C)c1S(=O)(=O)c1ccccc1 | 30.7
CCc1cccc(NC(=O)c2ccc3c(=O)n4c(nc3c2)CCCCC4)c1 | > 100
O=C(O)c1cc2ccc3ccccc3c2[nH]1 | 7.13
O=C1c2ccccc2C(c2nnnn2C2CCCCC2)N1CCc1ccc(O)cc1 (stereo unspecified) | > 100
Cc1cc(-c2ccc(C)c(S(=O)(=O)NCC3CCN(Cc4ccccc4F)CC3)c2)on1 | > 100
CC1Sc2ccc(S(=O)(=O)NCc3ccccc3)cc2NC1=O (stereo unspecified) | > 100
CCCc1nc2oc3c(NCCCN(C)C)ncnc3c2c2c1CCCC2 | 6.74
O=C(O)c1cccnc1SCc1ccccc1Cl | 35.9
O=C(Nc1nnc(Cc2ccc(Cl)cc2)s1)c1ccncc1 | > 100
CCOc1ccc(NC(=O)CCc2nnc3ccc(N4CCC(C)CC4)nn23)cc1 | 51.2
COc1ccc(OC)c(N(CC(=O)Nc2ccccc2F)S(=O)(=O)c2ccccc2)c1 | 4.66
Cc1c(CCOC(=O)C23CC4CC(CC(C4)C2)C3)sc[n+]1Cc1ccccc1 | 4.41
